Where two headings read alike, the source gives them in different places.
Columns and labels:
[1] = test system: BXF 1218; assay: Xenograft tumour panel, BXF 1218 (bladder); assay type: in vivo, nude mice; conditions: 450-540 mg/kg ip twice weekly, 7 d (control ended early); n.s.
Method: (§1) Breast tumours (MAXF 401) were implanted subcutaneously into the rear members of the mice aged 10 weeks. The increase in the volume of the individual tumours was measured using microcallipers, and the size of the tumour was calculated according to the formula a*b^2/2 (where a is the largest diameter of the tumour and b is the vertical axis). When the tumour volume had increased to 80-120 mm^3, the animals were allocated at random into test groups of in each case 6 animals.
(§2) To this end, xenografts of human tumours derived from prostate, uterine, lung, pancreatic, bladder and “head and neck” cancers were implanted in nude mice. The implantation and the determination of tumour volumes were carried out as described hereinbefore. Groups of 5 to 8 animals were used. The test substance was administered by ip injection twice weekly in the mentioned doses in the form of the sodium salt as an aqueous solution.
(§3) The tumour xenografts used, the doses used, the duration of the therapy and a classification of observed anti-tumour actions are summarised in Table 2 below.

[2] = test system: MAXF 401; assay: MAXF 401 breast tumour xenograft in nude mice; assay type: in vivo
Method: All the tests were carried out using female nude mice under standard conditions for the keeping of animals with controlled illumination and temperature. The animals were given water and food as desired.
as §1, with “The” for “Breast tumours (MAXF 401) were implanted subcutaneously into the rear members of the mice aged 10 weeks. The”
The test compounds (in the form of sodium salts) were dissolved in a saline solution, and 5% Klucel (hydroxypropylcellulose) was added in order to dissolve all the test compounds in the same carrier. […] A volume of 10 ml/kg body weight was injected. Animals that received only the carrier served as control. The test compounds were treated according to the scheme of twice weekly administration over a period of […]. The tumour volume and the body weight were checked twice weekly, and the relative tumour volumes were calculated as the ratio of tumour size to body weight.
On the basis of the relative tumour volumes of the animals treated with the test compounds compared with the tumour volumes of the controls treated only with the carrier, the T/C values were calculated and were used as the index of anti-tumour activity.
Subcutaneous implantation of the tumour and the determination of the tumour volume were carried out as described hereinbefore. The above-mentioned salts of the test substance were administered by ip injection twice weekly in the mentioned doses in the form of an aqueous solution, over a period of 4 weeks. […]
(§4) Subcutaneous implantation of the tumour and the determination of tumour volumes were carried out as described hereinbefore. The test substance was administered by ip injection twice weekly in the mentioned doses in the form of the sodium salt as an aqueous solution, over a period of 4 weeks.

[3] = test system: MEXF 276; assay: Xenograft tumour panel, MEXF 276 (melanoma); assay type: in vivo, nude mice; conditions: 450-540 mg/kg ip twice weekly, 21 d (control ended early)
[4] = Solubility in water; assay type: physicochemical; conditions: water, 25 °C, water
[5] = test system: CXF 280; assay: CXF 280 colon carcinoma xenograft model; assay type: in vivo, nude mice
Method: as §1, §2, §3
as §4, with “weeks. Groups of in each case 8 animals were used.” for “weeks.”

[6] = test system: UXF 1138; assay: Xenograft tumour panel, UXF 1138 (uterus); assay type: in vivo, nude mice; conditions: 450-540 mg/kg ip twice weekly, 21 d (control ended early)
Method: as §1, §2, §3

[7] = test system: HNXF 536; assay: Xenograft tumour panel, HNXF 536 (head & neck); assay type: in vivo, nude mice; conditions: 450-540 mg/kg ip twice weekly, 28 d
Method: as §1, §2, §3

[8] = test system: MEXF 462; assay: MEXF 462 melanoma xenograft model; assay type: in vivo, nude mice; conditions: for tumour volume in % of the tumour volume at the beginning of the test, Mean: 300 mg/kg ip twice weekly
Method: as §1, with “animals. […]” for “animals.”
The anti-tumour activity of the compounds was determined in the MEXF 462 xenograft tumour model in the nude mouse. Subcutaneous implantation of the tumour and the determination of tumour volumes were carried out as described hereinbefore. Groups of in each case 8 animals were used.
Equimolar amounts of the compound of Example 8 were administered ip twice weekly in the form of a 5% DMSO solution over the mentioned period.
The progression over time of the anti-tumour action, expressed in % of the tumour volume at the beginning of the test, over the period of therapy is shown in Table 3.

[9] = test system: PRXF DU145; assay: Xenograft tumour panel, PRXF DU145 (prostate); assay type: in vivo, nude mice; conditions: 385-590 mg/kg ip twice weekly, 28 d
Method: as §1, §2, §3

[10] = test system: PRXF 22RV1; assay: Xenograft tumour panel, PRXF 22RV1 (prostate); assay type: in vivo, nude mice; conditions: 450-540 mg/kg ip twice weekly, 28 d
Method: as §1, §2, §3

[11] = test system: Tumour-carrying mice; assay: Nephrological tolerability (kidney post-mortem and histology); assay type: in vivo
Method: A control group was treated only with the carrier according to a twice weekly treatment scheme.
When the 28-day treatment period had ended, a post-mortem was carried out on the mice. […] The kidneys of all the animals in the test groups were removed by operation, fixed in formalin according to standard methods, embedded in paraffin and processed for HE staining.

[12] = test system: PAXF 1657; assay: Xenograft tumour panel, PAXF 1657 (pancreas); assay type: in vivo, nude mice; conditions: 450-540 mg/kg ip twice weekly, 21 d (control ended early); n.s.
Method: as §1, §2, §3

[13] = test system: LXFL 529; assay: Xenograft tumour panel, LXFL 529 (lung); assay type: in vivo, nude mice; conditions: 450-540 mg/kg ip twice weekly, 10 d (control ended early)
Method: as §1, §2, §3

[14] = dose range used (450-540 mg/kg)
[15] = extrapolated, ip twice weekly over 4 weeks
[16] = kidney histology after 28-day twice weekly ip treatment, equimolar to 450 mg of stock composition, affected/animals

**Q.** Which “Max. effect (Inhibition)” value [1] does the source give for `CN(C)/N=N/c1ccc(C(=O)c2ccc(OCCC(=O)NCC(=O)[O-])cc2)cc1.[Na+]` [Example 2a] here?
**A.** Inhibition <50% n.s.

**Q.** And the Max. effect ([2]; 300-540 mg/kg ip twice weekly, 28 d, ***)?
**A.** Remission ***

**Q.** And the ED50 ([2]; Mus musculus, MAXF401, 672 h, ip twice weekly over 4 weeks, read-out: ED50 of the anti-tumour action)?
**A.** 450 mg/kg

**Q.** What about the “effect at the highest dose” value ([2]; highest dose, ip twice weekly over 4 weeks) of the same compound?
**A.** remission of the tumours

**Q.** And the “ED90 of the anti-tumour action” value ([2]; ip twice weekly over 4 weeks)?
**A.** 500 mg/kg

**Q.** What about the “threshold dose of the anti-tumour action” value ([2]; ip twice weekly over 4 weeks) of the same compound?
**A.** 300 mg/kg

**Q.** What about the “Max. effect (Inhibition)” value [3] of the same compound?
**A.** Inhibition >50% ***

**Q.** What about the solubility ([4]; 25° C., read-out: solubility in water at 25° C.) of the same compound?
**A.** 500 mg/mL

**Q.** And the solubility ([4]; room temperature (25° C.), read-out: water solubility at room temperature (25° C.))?
**A.** 500 mg/mL

**Q.** And the anti-tumour action ([5]; 450, 500 or 540 mg/kg ip twice weekly over 4 weeks, all doses)?
**A.** pronounced anti-tumour action

**Q.** What about the Max. effect ([5]; 450-540 mg/kg ip twice weekly, 28 d, ***) of the same compound?
**A.** Remission ***

**Q.** And the ED50 ([5]; Mus musculus, 672 h, extrapolated, ip twice weekly over 4 weeks)?
**A.** 390 mg/kg

**Q.** What about the tolerability [5, 14] of the same compound?
**A.** well tolerated

**Q.** What about the “weight loss in the animals” value [5, 14] of the same compound?
**A.** not associated with a significant weight loss

**Q.** And the ED20 [5, 15]?
**A.** 330 mg/kg

**Q.** And the ED90 [5, 15]?
**A.** 490 mg/kg

**Q.** What about the “Max. effect (Inhibition)” value [6] of the same compound?
**A.** Inhibition >50% **

**Q.** What about the “Max. effect (Inhibition)” value [7] of the same compound?
**A.** Inhibition <50% **

**Q.** And the Max. effect ([8]; 100-540 mg/kg ip twice weekly, 28 d, ***)?
**A.** Remission ***

**Q.** What about the “tumour volume in % of the tumour volume at the beginning of the test, Mean” value (shortened to “tumour volume in % of the tumour volume”) ([8]; day 0) of the same compound?
**A.** 100%

**Q.** And the “tumour volume in % of the tumour volume” value ([8]; day 3)?
**A.** 316%

**Q.** And the “tumour volume in % of the tumour volume” value ([8]; day 7)?
**A.** 240%

**Q.** What about the “tumour volume in % of the tumour volume” value ([8]; day 11) of the same compound?
**A.** 187%

**Q.** And the “tumour volume in % of the tumour volume” value ([8]; day 14)?
**A.** 166%

**Q.** What about the “tumour volume in % of the tumour volume” value ([8]; day 18) of the same compound?
**A.** 83%

**Q.** And the “tumour volume in % of the tumour volume” value ([8]; day 21)?
**A.** 67%

**Q.** And the “tumour volume in % of the tumour volume” value ([8]; day 25)?
**A.** 40%

**Q.** And the “tumour volume in % of the tumour volume” value ([8]; day 28)?
**A.** 30%

**Q.** And the outcome of treatment ([8]; equimolar doses ip twice weekly over 4 weeks)?
**A.** partial remission

**Q.** What about the “Max. effect (Inhibition)” value [9] of the same compound?
**A.** Inhibition >50% **

**Q.** And the “Max. effect (Inhibition)” value [10]?
**A.** Inhibition <50% **

**Q.** What about the “macroscopic findings of the kidneys at post-mortem” value ([11]; after 28-day treatment period) of the same compound?
**A.** without pathological findings

**Q.** And the Acute single-cell necrosis [11, 16]?
**A.** 0/9

**Q.** What about the Focal tubular necrosis [11, 16] of the same compound?
**A.** 0/9

**Q.** And the Max. effect [12]?
**A.** No anti-tumour

**Q.** And the “Max. effect (Inhibition)” value [13]?
**A.** Inhibition <50% *

— US8034797B2, “Triazene compounds for the treatment of cancer” (Trin Therapeutics GmbH, priority 2007, dated 2011)
